Data on 2 compounds can be found in patent publication US11485993B2, “Therapeutic drug monitoring” (Fastinov S.A., priority 2017, dated 2022).

One test concerns S. aureus ATCC 29213. Description: Flow cytometric measurement of the antimicrobial activity of vancomycin in human serum. Format: cell-based. The following applies: S. aureus ATCC 29213, flow cytometry, FIGS. 5A and 5B. As to the method:
Material and Methods. S. aureus ATCC 29213 was incubated for 1 hour with serial concentrations of vancomycin (4 μg/ml to 0.03 μg/ml) in donor drug free human serum and stained with adequate fluorochrome. The intensity of fluorescence and the changes in the scattergram of the bacterial population were recorded after flow cytometry analysis. Twenty samples of serum collected from patients receiving vancomycin were obtained from the biochemistry lab. The vancomycin drug concentrations were analyzed by Architect iVancomycin (Abbott) using the Architect i1000 SR analyzer (Abbott). Architect iVancomycin is an in vitro chemiluminescent microparticle immunoassay (CMIA) for the quantitative measurement of vancomycin in human serum or plasma. In parallel, serum samples were incubated with the S. aureus control strain, after 10 serial dilutions (1:2) and analyzed by flow cytometry (Accury, BD) according the protocol described in Example 1. A flow cytometric template of cell analysis was defined in order to include the majority of the bacterial population. A comparison of the concentrations obtained with the Architect iVancomycin method and with the new flow cytometric method was performed using Student's T test.
(In general: A flow cytometer gives signals particle by particle.)

The subject of another test is E. coli ATCC 25922. Description: Flow cytometric measurement of the antimicrobial activity of colistin in human plasma. Format: cell-based. As for the experimental part:
Serial dilutions of colistin (Sigma), ranging between 0.008 and 2 μg/ml, were inoculated in human plasma (free of colistin) and incubated with E. coli ATCC 25922 during 60 minutes and afterwards stained with a fluorescent dye and analyzed in a flow cytometer (Accuri, BD) using a protocol previously optimized (FIG. 3): a flow cytometric template of cell analysis was defined in order to include the majority of the bacterial population and at least 20,000 cells are analyzed according size, complexity and intensity of fluorescence on the different fluorescent channels.

Take `CN[C@H](CC(C)C)C(=O)N[C@H]1C(=O)N[C@@H](CC(N)=O)C(=O)N[C@H]2C(=O)N[C@H]3C(=O)N[C@H](C(=O)N[C@H](C(=O)O)c4cc(O)cc(O)c4-c4cc3ccc4O)[C@H](O)c3ccc(c(Cl)c3)Oc3cc2cc(c3O[C@@H]2O[C@H](CO)[C@@H](O)[C@H](O)[C@H]2O[C@H]2C[C@](C)(N)[C@H](O)[C@H](C)O2)Oc2ccc(cc2Cl)[C@H]1O` [vancomycin]: the “cellular lesion with increasing concentration (reduction of cell density plot, increase of intensity of fluorescence)” value with S. aureus ATCC 29213 is given as “a dose effect cellular lesion is evident”.
Take colistin: the “morphological changes of the bacterial cell population after serial increasing concentrations” value in the test with E. coli ATCC 25922 (E. coli ATCC 25922, flow cytometry scattergrams) is “Morphological changes were evident”. Besides, the “amount of cells at the acquisition gate after incubation with increasing concentrations” value in the test on E. coli ATCC 25922 (E. coli ATCC 25922, flow cytometry, FIG. 4) is “a dose-dependent effect was achieved”.
